{"source": "paper PMC9530166", "about": "“Allosteric regulation of glycogen breakdown by the second messenger cyclic di-GMP” (Nature Communications, 2022)", "key": {"[1]": {"molecular_target": "[RsiG + WhiG]", "set-up": "method as in PMID 25171413, PMID 31810759", "conditions": "cited from earlier work"}, "[2]": {"test_system": "His6-GlgXDLVR(212-215)", "experiment": "nanoDSF thermal shift assay, RLVD212-215 swap mutant", "type": "binding, Streptomyces venezuelae", "conditions": "His6-GlgXDLVR(212-215) mutant", "experimental": "Arginine and aspartic acid arranged in an RxxD motif are often found as c-di-GMP binding signatures in effector proteins[28],[34]. […] To determine if either of these motifs are involved in c-di-GMP binding, we swapped the arginine and aspartic acid residues in the two motifs and purified His6-GlgXDETR(49-52) and His6-GlgXDLVR(212-215).\n(§1) For label-free thermal shift assay experiments, 10 μM purified protein in 25 mM Tris pH 8, 150 mM NaCl, 2.5% (v/v) glycerol, and 5 mM MgCl2 was incubated without or with (1 mM) of nonlabeled c-di-GMP or c-di-AMP, respectively, at rt for 10 min. Reactions were subsequently analyzed in a Tycho NT.6 (NanoTemper Technologies) device with a 30 K/min thermal ramp and the internal fluorescence at 330 and 350 nm was recorded. Data analysis and calculation of derivatives was done using the internal evaluation features of the Tycho instrument.\n(§2) 217 Supplementary Fig. 5: NanoDSF assays with mutagenized His6-GlgX variants. (a) Swap of the\n(§3) 219 This was confirmed by DRaCALA, right. For DRaCALA assays, 15 µg of purified E. coli His6-GlgX\n(§4) 220 or His6-Vnz25270, respectively, were mixed with 0.5 µl of [32P]-c-di-GMP (Hartmann Analytic\n(§5) 221 GmbH, Braunschweig) in binding buffer (25 mM Tris pH 8.0, 150 mM NaCl, 2.5% (v/v) glycerol\n222 and 5 mM MgCl2). […]\n223 air dried for 10 min and analyzed by phosphorimaging. […]"}, "[3]": {"test_system": "His6-Vnz25270", "experiment": "nanoDSF thermal shift assay, GlgX paralog Vnz25270", "type": "binding, Streptomyces venezuelae", "conditions": "10 µM His6-Vnz25270, 1 mM c-di-GMP", "experimental": "as §1\n(a) 15 µg of purified E. coli His6-GlgX\n167 or His6-Vnz25270, respectively, were mixed with 0.5 µl of [32P]-c-di-GMP (Hartmann Analytic\n168 GmbH, Braunschweig) in binding buffer (25 mM Tris pH 8.0, 150 mM NaCl, 2.5% (v/v) glycerol\n169 and 5 mM MgCl2). 10 µL of the reactions were spotted on the same nitrocellulose membrane (Roth),\n170 air dried for 10 min and analyzed by phosphorimaging. (b, c) 10 µM purified His6-Vnz25270 (b) or\n171 His6-GlgXE.coli (c) in 25 mM Tris pH 8.0, 150 mM NaCl, 2.5% (v/v) glycerol and 5 mM MgCl2 were\n172 incubated without or with (1 mM) c-di-GMP. Reactions were analyzed in a Tycho NT.6\n173 (NanoTemper Technologies) device.\n(§6) (1 picture or pasted object on this page, not shown here)"}, "[4]": {"test_system": "His6-GlgX (Vnz29170)", "experiment": "nanoDSF label-free thermal shift assay, wild-type GlgX", "type": "binding, Streptomyces venezuelae", "conditions": "10 µM GlgX, 1 mM ligand; without ligand 51.5 °C", "experimental": "Fig. 1 GlgX binds c-di-GMP. a Quantification of c-di-GMP in S. venezuelae cell extracts using LC-MS/MS. Cells were harvested during late vegetative growth (8–10 h), transition to sporulation (12–16 h), and sporulation (18–20 h). Data are presented as the mean of biological replicates ±SD (n = 3). […] Source data are provided in the Source data file. c [^32P]-c-di-GMP binds to GlgX in DRaCALA assay indicated by dark spots in the center of the nitrocellulose membrane. For competition, excess (100 µM) of unlabeled c-di-GMP, c-di-AMP, or GTP was added to the reaction containing [^32P]-c-di-GMP and GlgX.\nTo determine if the interaction between Vnz29170 (herein called GlgX) and c-di-GMP is direct, we purified an N-terminally His6-tagged GlgX protein and performed nano differential scanning fluorimetry (nanoDSF) thermal shift assays. […]\nFor label-free thermal shift assay experiments, 10 μM purified protein in 25 mM Tris pH 8, 150 mM NaCl, 2.5% (v/v) glycerol, and 5 mM MgCl2 was incubated without or with (1 mM) of nonlabeled c-di-GMP or c-di-AMP, respectively, at rt for 10 min. Reactions were subsequently analyzed in a Tycho NT.6 (NanoTemper Technologies) device with a 30 K/min thermal ramp and the internal fluorescence at 330 and 350 nm was recorded. […]"}, "[5]": {"test_system": "His6-GlgXDETR(49-52)", "experiment": "DRaCALA with [32P]-c-di-GMP, RETD49-52 swap mutant", "type": "binding, Streptomyces venezuelae", "conditions": "His6-GlgXDETR(49-52) mutant", "experimental": "For DRaCALA assays, purified His6-GlgX (15 μg) was mixed with 0.5 μl undiluted [^32P]-c-di-GMP (42 nM) (Hartmann Analytic GmbH, Braunschweig) in binding buffer (25 mM Tris pH 8; 150 mM NaCl; 2.5% (v/v) glycerol; 5 mM MgCl2) and the reaction was incubated at rt for 5 min. For competition assays, 100 μM nonlabeled nucleotides were added to the samples and incubated at rt for 5 min prior to the addition of [^32P]-c-di-GMP. Reactions (10 μl) were spotted on the same nitrocellulose membrane (Roth), air dried for 10 min and analyzed via phosphorimaging.\nas §2, §3, §4, §5\n222 and 5 mM MgCl2). 10 µl of the reactions were spotted on the same nitrocellulose membrane (Roth),\n223 air dried for 10 min and analyzed by phosphorimaging. (b) Changing the RLVD motif (amino acids\nas §6"}}, "note": "“Also recorded” adds a separate entry of the source."}
{"smiles": "Nc1nc2c(ncn2[C@@H]2O[C@@H]3CO[P@](=O)(O)O[C@H]4[C@@H](O)[C@H](n5cnc6c(=O)[nH]c(N)nc65)O[C@@H]4CO[P@](=O)(O)O[C@H]3[C@H]2O)c(=O)[nH]1", "note": "[c-di-GMP, bis-(3′−5′)-cyclic diguanosine monophosphate]", "values": [{"measurement": "Kd", "setting": "[1]", "value": "390 ± 50", "unit": "nM"}, {"measurement": "shift in melting/unfolding temperature by c-di-GMP", "setting": "[2]", "value": "still allows ligand binding; also recorded: still caused a shift"}, {"measurement": "interaction with c-di-GMP by nanoDSF", "setting": "[3]", "value": "did not detect any interactions"}, {"measurement": "melting point of His6-GlgX in the presence of ligand", "setting": "[4]", "value": 55.8, "unit": "°C"}, {"measurement": "binding of c-di-GMP in DRaCALA", "setting": "[5]", "value": "does not bind c-di-GMP"}]}
